The target of the first assay is T1, PTK2 enzyme (Homo sapiens, UniProt Q05397).
T1 construct: purchased Invitrogen PV3832
T1 sequence (Q05397 whole entry): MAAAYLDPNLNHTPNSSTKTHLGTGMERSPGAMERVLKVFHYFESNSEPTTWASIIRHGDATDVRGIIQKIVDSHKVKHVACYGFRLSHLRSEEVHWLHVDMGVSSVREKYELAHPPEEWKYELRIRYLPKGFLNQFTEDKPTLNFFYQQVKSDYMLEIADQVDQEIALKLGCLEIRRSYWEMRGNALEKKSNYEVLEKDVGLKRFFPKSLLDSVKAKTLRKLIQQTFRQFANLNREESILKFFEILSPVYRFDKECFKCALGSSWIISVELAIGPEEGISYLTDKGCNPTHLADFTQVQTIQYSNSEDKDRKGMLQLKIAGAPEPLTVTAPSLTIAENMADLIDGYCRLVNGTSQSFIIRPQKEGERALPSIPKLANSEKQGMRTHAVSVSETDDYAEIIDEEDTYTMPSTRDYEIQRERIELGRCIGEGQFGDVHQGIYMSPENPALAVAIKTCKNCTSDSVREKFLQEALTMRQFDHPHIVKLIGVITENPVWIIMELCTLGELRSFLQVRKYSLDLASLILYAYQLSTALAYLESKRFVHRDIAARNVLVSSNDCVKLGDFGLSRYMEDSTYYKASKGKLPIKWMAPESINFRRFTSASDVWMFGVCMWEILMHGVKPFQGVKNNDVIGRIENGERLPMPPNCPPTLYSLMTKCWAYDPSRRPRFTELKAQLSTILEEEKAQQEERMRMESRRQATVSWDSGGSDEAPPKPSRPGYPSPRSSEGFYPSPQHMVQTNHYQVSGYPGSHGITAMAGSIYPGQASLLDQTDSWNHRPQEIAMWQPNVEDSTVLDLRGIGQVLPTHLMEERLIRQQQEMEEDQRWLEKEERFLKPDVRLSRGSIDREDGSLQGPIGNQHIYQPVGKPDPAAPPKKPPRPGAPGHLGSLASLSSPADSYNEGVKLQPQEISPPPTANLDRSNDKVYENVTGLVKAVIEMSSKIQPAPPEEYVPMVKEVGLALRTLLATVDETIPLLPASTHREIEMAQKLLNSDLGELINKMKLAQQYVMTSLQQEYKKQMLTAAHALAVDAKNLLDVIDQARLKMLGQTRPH
Description: PTK2 enzyme test, Assay 1 (DELFIA, poly-Glu-Tyr substrate, antibody PT60). Type of assay: biochemical. Conditions: Assay 1 (values without *); 1 h pre-incubation, 2% DMSO. In short, it runs like this:
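Active PTK2 (0.01 µg/well) preincubated 1 h at RT with compound (duplicates, 2% DMSO final), then reacted 1 h at RT with poly(Glu,Tyr) 4:1 plus biotinylated poly(Glu,Tyr) and an ATP mix containing 50 μM ATP. EDTA-stopped, streptavidin-captured product detected by Eu-PT60 anti-phosphotyrosine DELFIA; IC50 by variable-Hill sigmoid fit.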
For the compound `COc1cc(C(=O)NC2CCN(C)CC2)ccc1Nc1ncc(C(F)(F)F)c(N[C@@H]2CCCC[C@H]2N(C)S(C)(=O)=O)n1` [Example I-90, 4-{4-[(1R,2R)-2-(methanesulphonyl-methyl-amino)-cyclohexylamino]-5-trifluoromethyl-pyrimidin-2-ylamino}-3-methoxy-N-(1-methyl-piperidin-4-yl)-benzamide], the IC50 (in general, the concentration that gives 50% inhibition) is 0.8 nM.
Turning to `CCN([C@@H]1CCCC[C@H]1Nc1nc(Nc2ccc(C(=O)NC3CCN(C)CC3)cc2OC)ncc1C(F)(F)F)S(C)(=O)=O` [Example I-91], the 50% inhibitory concentration (IC50) is 1 nM.
The same measure, in the same setting: the same measure for `COc1cc(C(=O)NC2CCN(C)CC2)c(C)cc1Nc1ncc(C(F)(F)F)c(N[C@@H]2CCCC[C@H]2N(C)S(C)(=O)=O)n1` [Example I-93]: 0.86 nM; for `COc1cc(C(=O)NC2CCN(C)CC2)ccc1Nc1ncc(C(F)(F)F)c(N[C@@H]2CCC[C@H]2N(C)S(C)(=O)=O)n1` [Example I-124, 4-{4-[(1R,2R)-2-(methanesulphonyl-methyl-amino)-cyclopentylamino]-5-trifluoromethyl-pyrimidin-2-ylamino}-3-methoxy-N-(1-methyl-piperidin-4-yl)-benzamide]: 0.81 nM.

A further assay deals with T1, PTK2 enzyme. Description: PTK2 enzyme test, Assay 2 (DELFIA, poly-Glu-Tyr substrate, antibody PT66). Type of assay: biochemical. Conditions: Assay 2 (values marked *); 1 h pre-incubation, 0.5% DMSO. The source says:
This test uses active PTK2 enzyme (Invitrogen Code PV3832) and poly-Glu-Tyr (4:1, Sigma P-0275) as the kinase substrate. The kinase activity is detected by means of the phosphorylation of the substrate in a DELFIA™ assay. The phosphorylated substrate is detected with the europium-labelled phosphotyrosine antibody PT66 (Perkin Elmer, No.: AD0040).
In order to determine concentration-activity curves with PTK2-inhibitors the compounds are serially diluted first of all in 10% DMSO/H2O and then in kinase dilution buffer (20 mM TRIS/HCl pH 7.5, 0.1 mM EDTA, 0.1 mM EGTA, 0.286 mM sodium orthovanadate, 10% glycerol with the addition of freshly prepared BSA (fraction V, 1 mg/mL) and DTT (1 mM)) and 10 μL of each dilution are dispensed per well in a 96-well microtitre plate (clear U-shaped base plate, Greiner No. 650101) (the inhibitors are tested in duplicates) and mixed with 10 μL/well of PTK2 kinase (0.01 μg/well). PTK2 kinase is diluted accordingly beforehand with kinase dilution buffer. The diluted PTK2 inhibitor and the PTK2 kinase are pre-incubated for 1 h at RT and shaken at 500 revolutions per min. Then 10 μL/well poly-Glu-Tyr substrate (25 μg/well poly-Glu-Tyr, 0.05 μg/well biotinylated poly-Glu-Tyr dissolved in 250 mM TRIS/HCl pH 7.5, 9 mM DTT) are added. The reaction is started by the addition of 20 μL of ATP Mix (30 mM TRIS/HCl pH 7.5, 0.02% Brij, 0.2 mM sodium orthovanadate, 10 mM magnesium acetate, 0.1 mM EGTA, 1× phosphatase inhibitor cocktail 1 (Sigma, No.: P2850), 50 μM ATP (Sigma, No.: A3377; 15 mM stock solution))—the final concentration of DMSO is 0.5%. After 1 h kinase reaction (the plates are shaken at 500 rpm), the reaction is stopped by the addition of 12 μL/well of 100 mM EDTA, pH 8, and shaken for a further 5 min at RT (500 U/min). 55 μL of the reaction mixture are transferred into a streptavidin plate (Strepta Well High Bind (transparent, 96-well) made by Roche, No.: 11989685001) and incubated for 1 h at RT (shaking at 500 rpm). Then the microtitre plate is washed five times with 200 μL/well D-PBS (Invitrogen, No. 14190). 100 μL of a solution containing DELFIA Eu-N1 Anti-Phosphotyrosine PT66 antibody (Perkin Elmer, No.: AD0040, diluted 1:9000 in DELFIA test buffer (Perkin Elmer, No.: 1244-111)) is then added and it is incubated for 1 h at RT (shaking at 500 rpm). Then the plate is washed five times with 200 μL/well DELFIA washing buffer (Perkin Elmer, No.: 1244-114), 200 μL/well strengthening solution (Perkin Elmer, No.: 1244-105) is added and the whole is incubated for 10 min at RT (shaking at 300 rpm).
The time-delayed europium fluorescence is then measured in a microtitre plate reader (Victor, Perkin Elmer). The positive control consists of wells that contain solvent (0.5% DMSO in test buffer) and display uninhibited kinase activity. Wells that contain test buffer instead of enzyme act as a control for the background kinase activity.
The IC50 values are determined from concentration-activity analyses by iterative calculation using a sigmoid curve analysis algorithm (FIFTY, based on Graph PAD Prism Version 3.03) with a variable Hill coefficient.
Turning to `COCCN1CCC(NC(=O)c2cc(OC)c(Nc3ncc(C(F)(F)F)c(N[C@@H]4CCC[C@H]4N(C)S(C)(=O)=O)n3)cc2F)CC1` [Example I-130], the IC50 was 0.24 nM.
Consider `COc1cc(C(=O)NN2CCN(C)CC2)c(F)cc1Nc1ncc(C(F)(F)F)c(N[C@@H]2CCC[C@H]2N(C)S(C)(=O)=O)n1` [Example I-136], for which the IC50 came to 0.28 nM.
The same measure, in the same setting: the same measure for `COc1cc(N2CCN(C)CC2)c(Cl)cc1Nc1ncc(C(F)(F)F)c(N[C@@H]2CCC[C@H]2N(C)S(C)(=O)=O)n1` [Example I-139]: 0.49 nM; for `COc1cc(C(=O)NC2CCN(C)CC2)ccc1Nc1ncc(C(F)(F)F)c(N[C@@H]2CC=CC[C@H]2N(C)S(C)(=O)=O)n1` [Example I-151]: 0.67 nM; for `COc1cc(NC(C)=O)c(F)cc1Nc1ncc(C(F)(F)F)c(N[C@@H]2CCCC[C@H]2N(C)S(C)(=O)=O)n1` [Example I-159]: 0.9 nM.
On the same count and under the same terms, the same measure for `CCc1cc(Nc2ncc(C(F)(F)F)c(N[C@@H]3CCCC[C@H]3N(C)S(C)(=O)=O)n2)c(OC)cc1N1CCN(C)CC1` [Example I-160]: 0.71 nM; for `COc1ccc(C(=O)N(C)C2CCN(C)CC2)cc1Nc1ncc(C(F)(F)F)c(N[C@@H]2CCC[C@H]2N(C)S(C)(=O)=O)n1` [Example I-176]: 0.44 nM; for `COc1ccc(C(=O)NC2CCN(C)CC2)cc1Nc1ncc(Cl)c(N[C@@H]2CCC[C@H]2N(C)S(C)(=O)=O)n1` [Example I-179]: 0.46 nM.
The same measure, in the same setting: the result for `COc1ccc(C(=O)NC2CCN(C)CC2)cc1Nc1ncc(C(F)(F)F)c(N[C@@H]2CCCC[C@H]2NC(C)=O)n1` [Example I-180] reads 0.43 nM; that for `COCCNC(=O)c1ccc(OC)c(Nc2ncc(C(F)(F)F)c(N[C@@H]3CCCC[C@H]3NS(C)(=O)=O)n2)c1` [Example I-181], 0.43 nM.
Take `COc1cc(N2CCN(C(C)(C)C)CC2)c(C)cc1Nc1ncc(Cl)c(N[C@@H]2CCCC[C@H]2N(C)S(C)(=O)=O)n1` [Example I-184]: the IC50 worked out at 1 nM.
Same read-out and setting: the result for `COc1cc(N2CCN(C(C)(C)C)CC2)c(Cl)cc1Nc1ncc(Cl)c(N[C@@H]2CCCC[C@H]2N(C)S(C)(=O)=O)n1` [Example I-185] reads 1 nM; that for `COc1ccc(NC(=O)[C@@H]2CCCN2C)cc1Nc1ncc(Cl)c(N[C@@H]2CCCC[C@H]2N(C)S(C)(=O)=O)n1` [Example I-191], 10 nM; that for `COc1ccc(NC(=O)C2CCN(C)CC2)cc1Nc1ncc(Cl)c(N[C@@H]2CCCC[C@H]2N(C)S(C)(=O)=O)n1` [Example I-192], 2 nM.
`COc1cc(F)c(C(=O)NC2CCOCC2)cc1Nc1ncc(C(F)(F)F)c(N[C@@H]2CCCC[C@H]2NS(C)(=O)=O)n1` [Example I-193] returned an IC50 of 0.72 nM.
Still for that read-out and setting: the result for `CNC(=O)c1cc(Nc2ncc(C(F)(F)F)c(N[C@@H]3CCCC[C@H]3NS(C)(=O)=O)n2)c(OC)cc1F` [Example I-194] reads 0.71 nM.

A further assay deals with T2, Xenopus laevis Aurora B/INCENP complex (Xenopus laevis, UniProt Q6DE08).
T2 construct: equipped at the N-terminal position with a GST tag (amino acids 60-361); GST (N, cleaved yes); made in house; host or cells: E. coli BL21 (DE3)
T2 sequence (Q6DE08 60-361): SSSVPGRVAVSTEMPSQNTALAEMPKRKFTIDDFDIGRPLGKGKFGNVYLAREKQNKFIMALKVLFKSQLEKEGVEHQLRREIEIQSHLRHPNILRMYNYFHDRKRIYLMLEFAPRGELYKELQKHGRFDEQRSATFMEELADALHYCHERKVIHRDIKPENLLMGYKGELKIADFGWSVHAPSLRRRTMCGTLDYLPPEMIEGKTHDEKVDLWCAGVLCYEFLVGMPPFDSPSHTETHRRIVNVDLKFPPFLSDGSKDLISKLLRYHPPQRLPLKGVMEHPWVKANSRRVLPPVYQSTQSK
T2 sequence (O13024 790-847 partner): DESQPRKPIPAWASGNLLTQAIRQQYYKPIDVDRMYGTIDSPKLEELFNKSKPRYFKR
Description: Aurora-B kinase assay (radioactive enzyme inhibition).
Settings: not given
Type of assay: biochemical. The source says: A radioactive enzyme inhibition assay was developed using E. coli-expressed recombinant Xenopus laevis Aurora B wild-type protein equipped at the N-terminal position with a GST tag (amino acids 60-361) in a complex with Xenopus laevis INCENP (amino acids 790-847), which is obtained from bacteria and purified. In equivalent manner a Xenopus laevis Aurora B mutant (G96V) in a complex with Xenopus laevis INCENP^790-847 may also be used.
The coding sequence for Aurora-B^60-361 from Xenopus laevis is cloned into a modified version of pGEX-6T (Amersham Biotech) via BamHI and SalI cutting sites. The vector contains two cloning cassettes which are separated by a ribosomal binding site, allowing bi-cistronic expression. In this configuration Xenopus laevis Aurora B is expressed by the first cassette, and the Xenopus laevis INCENP^790-847 is expressed by the second cassette. The resulting vector is pAUB-IN^847.
First of all the E. coli strain BL21 (DE3) is co-transformed with pUBS520 helper plasmid and pAUB-IN^847, after which protein expression is induced using 0.3 mM IPTG at an OD600 of 0.45-0.7. The expression is then continued for approx. 12-16 h at 23-25° C. with agitation.
The bacteria are then removed by centrifuging and the pellet is lysed in lysis buffer (50 mM Tris/Cl pH 7.6, 300 mM NaCl, 1 mM DTT, 1 mM EDTA, 5% glycerol, Roche Complete Protease Inhibitor tablets) using ultrasound, using 20-30 mL lysis buffer per litre of E. coli culture. The lysed material is freed from debris by centrifugation (12000 rpm, 45-60 min, JA20 rotor). The supernatant is incubated with […] of equilibrated GST Sepharose Fast Flow (Amersham Biosciences) per litre of E. coli culture for 4-5 h at 4° C. Then the column material is washed with 30 volumes of lysis buffer and then equilibrated with 30 volumes of cleavage buffer (50 mM Tris/Cl pH 7.6, 150 mM NaCl, 1 mM DTT, 1 mM EDTA). To cleave the GST tag from Aurora B, 10 units of Prescission Protease (Amersham Biosciences) are used per milligram of substrate and the mixture is incubated for 16 h at 4° C. The supernatant which contains the cleavage product is loaded onto a 6 mL Resource Q column (Amersham Biosciences) equilibrated with ion exchange buffer (50 mM Tris/Cl pH 7.6, 150 mM NaCl, 1 mM DTT, 1 mM EDTA). The Aurora B/INCENP complex is caught as it flows through, then concentrated and loaded onto a Superdex 200 size exclusion chromatography (SEC) column equilibrated with SEC buffer (10 mM Tris/Cl pH 7.6, 150 mM NaCl, 1 mM DTT, 1 mM EDTA). Fractions which contain the AuroraB/INCENP complex are collected and concentrated using Vivaspin concentrators (molecular weight exclusion 3000-5000 Da) to a final concentration of 12 mg/mL. Aliquots (e.g. 240 ng/μL) for kinase assays are transferred from this stock solution into freezing buffer (50 mM Tris/Cl pH 8.0, 150 mM NaCl, 0.1 mM EDTA, 0.03% Brij-35, 10% glycerol, 1 mM DTT) and stored at −80° C.
Test substances are placed in a polypropylene dish (96 wells, Greiner #655 201), in order to cover a concentration frame of 10 μM-0.0001 μM. The final concentration of DMSO in the assay is 5%. 30 μL of protein mix (50 mM Tris/Cl pH 7.5, 25 mM MgCl2, 25 mM NaCl, 167 μM ATP, 10 ng Xenopus laevis Aurora B/INCENP complex in freezing buffer) are pipetted into the 10 μl of test substance provided in 25% DMSO and this is incubated for 15 min at RT. Then 10 μL of peptide mix (100 mM Tris/Cl pH 7.5, 50 mM MgCl2, 50 mM NaCl, 5 μM NaF, 5 μM DTT, 1 μCi gamma-P33-ATP [Amersham], 50 μM substrate peptide [biotin-EPLERRLSLVPDS or multimers thereof, or biotin-EPLERRLSLVPKM or multimers thereof, or biotin-[…]]) are added. The reaction is incubated for 75 min (ambient temperature) and stopped by the addition of 180 μL of 6.4% trichloroacetic acid and incubated for 20 min on ice. […]
As to `COc1cc(C(=O)NC2CCN(C)CC2)ccc1Nc1ncc(C(F)(F)F)c(N[C@@H]2CCCC[C@H]2N(C)S(C)(=O)=O)n1` [Example I-90, 4-{4-[(1R,2R)-2-(methanesulphonyl-methyl-amino)-cyclohexylamino]-5-trifluoromethyl-pyrimidin-2-ylamino}-3-methoxy-N-(1-methyl-piperidin-4-yl)-benzamide], the concentration for half-maximal inhibition (IC50) turned out to be 280 nM.
The same measure, in the same setting: the result for `CCN([C@@H]1CCCC[C@H]1Nc1nc(Nc2ccc(C(=O)NC3CCN(C)CC3)cc2OC)ncc1C(F)(F)F)S(C)(=O)=O` [Example I-91] reads 264 nM; that for `COc1cc(C(=O)NC2CCN(C)CC2)c(C)cc1Nc1ncc(C(F)(F)F)c(N[C@@H]2CCCC[C@H]2N(C)S(C)(=O)=O)n1` [Example I-93], 4040 nM.
On the same count and under the same terms, the same measure for `COc1cc(C(=O)NC2CCN(C)CC2)ccc1Nc1ncc(C(F)(F)F)c(N[C@@H]2CCC[C@H]2N(C)S(C)(=O)=O)n1` [Example I-124, 4-{4-[(1R,2R)-2-(methanesulphonyl-methyl-amino)-cyclopentylamino]-5-trifluoromethyl-pyrimidin-2-ylamino}-3-methoxy-N-(1-methyl-piperidin-4-yl)-benzamide]: 241 nM.
